Data reported in patent US7074773B2, “Pharmaceutical composition for diabetic neuropathy” (priority 2001, dated 2006).
Where a name gives a salt, the structure may show the parent alone.

Legend:
[1] = system: streptozotocin-induced diabetic mouse; test: Assessment (threshold analysis) of thermal nociceptive response, tail-flick test, using diabetic mouse; type: in vivo, male ICR mice
Procedure: Test: Assessment (Threshold Analysis) of Thermal Nociceptive Response Using Diabetic Mouse (in vivo)
This test was performed according to the method of Osawa and Kamei [Eur. J. Pharmacol., 372, 221–228 (1999)]. […]
The assessment was performed using a tail-flick test. To be specific, photothermic stimulation was given to the tail of mouse, and the reaction latency until it moves the tail feeling the heat was measured. How the reaction latency changed in the diabetes group as compared to the normal group and the results with administration of 100 mg/kg of CDP-choline to the diabetes group are shown in FIG. 1.
(See the Method of Osawa and Kamei [Eur. J. Pharmacol., 372, 221–228 (1999)])
Streptozotocin (200 mg/kg) dissolved in citrate buffer (pH 4.5) was administered into the tail vein of male ICR mice (12–13 per group, body weight: about 20 g) to induce diabetes. […]
The assessment was performed using a tail-flick test.
Test: Assessment (Threshold Analysis) of Thermal Nociceptive Response Using diabetic Mice (in vivo)
CDP-choline Na was dissolved in distilled water and orally administered at a dose of 100 mg/kg once a day starting from the time point when 8 weeks passed from the administration of streptozotocin. […]

[2] = system: streptozotocin-induced diabetic mice; test: Charcoal powder transportability test of gastrointestinal tract using diabetic mice; type: in vivo, male ICR mice; conditions: diabetes group
Procedure: Test: Charcoal Powder Transportability Test of Gastrointestinal Tract Using Diabetic Mice (in vivo)
Streptozotocin (200 mg/kg) dissolved in citrate buffer (pH 4.5) was intraperitoneally administered to male ICR mice (7–11 per group, body weight: about 20 g) to induce diabetes.
CDP-choline Na was dissolved in distilled water and orally administered at a dose of 100 mg/kg. once a day from immediately after induction of diabetes.
The mice that had undergone streptozotocin administration 8 weeks before were used for the test. A 5% activated charcoal powder suspension was prepared using 0.5% aqueous carboxymethylcellulose solution, and orally administered at 0.1 ml/mice to mice fasted from the previous day. After 30 min, the gastrointestinal tract from pyloric portion of stomach to rectum was enucleated and the whole length was measured. In addition, the position of the activated charcoal powder after movement was confirmed and the distance of movement from pyloric portion of stomach was measured. This was converted to numerical values based on the whole length of from pyloric portion of stomach to rectum as 100%, and the data was processed and taken to show charcoal powder transportability of gastrointestinal tract.
How the charcoal powder transportability of gastrointestinal tract changed in the diabetes group as compared to the normal group and the results with administration of 100 mg/kg of CDP-choline to the diabetes group are shown in Table 1. In Table 1, the normal group, diabetes group and diabetes+CDP-choline administration group were divided into three criteria of less than 40%, not less than 40% and less than 60%, and not less than 60% of charcoal powder transportability of gastrointestinal tract, and the number of incidents in each criterion is shown in percentage.

[3] = system: diabetic neuropathy patients; conditions: Phase III controlled clinical trial; cited from earlier work
[4] = system: peripheral neuropathy induced by taxol; conditions: reported in WO 00/11952; cited from earlier work
[5] = 100 mg/kg oral once a day from induction, 8 weeks after streptozotocin

C[N+](C)(C)CCOP(=O)(O)OP(=O)([O-])OC[C@H]1O[C@@H](n2ccc(N)nc2=O)[C@H](O)[C@@H]1O [CDP-choline, cytidine 5′-diphosphocholine monosodium salt]
reaction latency prolongation-inhibitory effect ([1]; 100 mg/kg oral from 8 weeks post-streptozotocin, at the lapse of 11 weeks after streptozotocin): significant reaction latency prolongation-inhibitory effect was observed
inhibitory effect on prolongation of reaction latency (diminished sensation of the sensory nerves) ([1]; Example 5, oral once a day from 5 weeks post-streptozotocin, 100 mg/kg, FIG. 3 at 7 weeks, similar at 6 or 8 weeks): nearly completely inhibited
effect on prolongation of reaction latency ([1]; diabetes group, 30 mg/kg oral, from 5 weeks post-streptozotocin, data not shown): a similar effect was observed
inhibition of prolongation of reaction latency (diminished sensation) ([1]; diabetes group, 100 mg/kg oral once a day from 5 weeks post-streptozotocin, FIG. 2): almost completely inhibited
inhibition of biphasic neuropathy (reaction latency, tail-flick) ([1]; diabetes group, 100 mg/kg oral once a day from immediately after induction of diabetes, FIG. 1): almost completely inhibited
effect on reaction latency (tail-flick) ([1]; diabetes group, 300 mg/kg oral, from immediately after induction of diabetes): a similar effect was found
effect on reaction latency (tail-flick) in normal group ([1]; normal group, 100 or 300 mg/kg): no effect on the reaction latency
inhibition of degradation of charcoal powder transportability of gastrointestinal tract ([2]; 100 mg/kg oral): complete inhibition
incidence of mice with charcoal powder transportability of gastrointestinal tract less than 40% [2, 5]: 0%
incidence of mice with charcoal powder transportability of gastrointestinal tract not less than 40% and less than 60% [2, 5]: 71.4%
incidence of mice with charcoal powder transportability of gastrointestinal tract not less than 60% [2, 5]: 28.6%

Cc1cccc(C)c1OCC(C)N (stereo not shown) [mexiletine hydrochloride]
spontaneous pain relieving rate [3]: not more than 50%

CC(=O)OC[C@H]1O[C@@H](n2ccc(=O)[nH]c2=O)[C@H](OC(C)=O)[C@@H]1OC(C)=O [triacetyluridine]
efficacy for peripheral neuropathy (diminished sensation) induced by taxol [4]: effective
